In brackets after ≈: the same amount, converted by molar mass.
Tests used:
[1] = test system: Trichophyton asteroides; experiment: In vitro antifungal activity against Trichophyton asteroides
[2] = test system: Klebsiella pneumoniae; experiment: In vitro antibacterial activity against Klebsiella pneumoniae; format: functional
[3] = test system: Trichophyton benhamiae; experiment: In vitro antifungal activity against Trichophyton asteroides; format: functional
[4] = test system: Staphylococcus aureus; experiment: In vitro antibacterial activity against Staphylococcus aureus; format: functional
[5] = test system: Aspergillus fumigatus; experiment: In vitro antifungal activity against Aspergillus fumigatus; format: functional
[6] = test system: Escherichia coli; experiment: In vitro antibacterial activity against Escherichia coli; format: functional
[7] = test system: Pseudomonas aeruginosa; experiment: In vitro antibacterial activity against Pseudomonas aeruginosa; format: functional
[8] = test system: Streptococcus pyogenes; experiment: In vitro antibacterial activity against Streptococcus pyogenes; format: functional
[9] = Klebsiella pneumoniae, read-out: MIC

**Q.** Which results are given for `O=C(NC(CO)C(F)c1ccc([N+](=O)[O-])cc1)C(Cl)Cl` (stereo in doubt; 11)?
**A.** MIC [1]: > 100 µg/mL; MIC [2, 9]: 50 µg/mL (≈ 154 µM); MIC [3]: > 100 µg/mL; MIC [4]: > 100 µg/mL; MIC [5]: > 100 µg/mL; MIC [6]: > 100 µg/mL; MIC [7]: > 100 µg/mL; MIC [8]: > 100 µg/mL

**Q.** `O=C(NC(CO)C(F)c1ccc([N+](=O)[O-])cc1)C(Cl)Cl` (stereo in doubt; 3) was tested. Which MIC [2] did it give?
**A.** >100 µg/mL

**Q.** For `O=C(NC(CO)C(F)c1ccccc1[N+](=O)[O-])C(Cl)Cl` (stereo not drawn), which MIC [1] is on record?
**A.** > 100 µg/mL

**Q.** And the MIC [2, 9]?
**A.** > 100 µg/mL

**Q.** What about the MIC [3] of the same molecule?
**A.** > 100 µg/mL

**Q.** And the MIC [4]?
**A.** > 100 µg/mL

**Q.** What about the MIC [5] of the same molecule?
**A.** > 100 µg/mL

**Q.** What about the MIC [6] of the same molecule?
**A.** > 100 µg/mL

**Q.** What about the MIC [7] of the same molecule?
**A.** > 100 µg/mL

**Q.** What about the MIC [8] of the same molecule?
**A.** > 100 µg/mL

**Q.** With `O=C(NC(CO)C(F)c1cccc([N+](=O)[O-])c1)C(Cl)Cl` (stereo not drawn) as the molecule, how does the MIC [1] read?
**A.** > 100 µg/mL

**Q.** And the MIC [2, 9]?
**A.** > 100 µg/mL

**Q.** What about the MIC [3] of the same molecule?
**A.** > 100 µg/mL

**Q.** And the MIC [4]?
**A.** > 100 µg/mL

**Q.** What about the MIC [5] of the same molecule?
**A.** > 100 µg/mL

**Q.** And the MIC [6]?
**A.** > 100 µg/mL

**Q.** And the MIC [7]?
**A.** > 100 µg/mL

**Q.** What about the MIC [8] of the same molecule?
**A.** > 100 µg/mL

**Q.** What does the source list for `O=C(NC(CO)C(F)c1ccccc1)C(Cl)Cl` (stereo not drawn)?
**A.** MIC [1]: > 100 µg/mL; MIC [2, 9]: > 100 µg/mL; MIC [3]: > 100 µg/mL; MIC [4]: > 100 µg/mL; MIC [5]: > 100 µg/mL; MIC [6]: > 100 µg/mL; MIC [7]: > 100 µg/mL; MIC [8]: > 100 µg/mL

— ChEMBL document CHEMBL1122947, “Fluorine-containing amino acids and their derivatives. 4. Synthesis and antibacterial activity of threo and erythro 1-fluorodehydroxylated chloramphenicol analogues” (1985)
